A short description of experiment [1]: Gas-phase evaluation of each fragrance ingredient alone against model scalp malodour, MiniVAS device, panel of 5 experts. The conditions noted are these: for Scalp MOC of ingredient alone: expert description. How it is done: In a first set of experiments, the scalp malodour counteractancy of 173 fragrance ingredients was evaluated by panel of 5 experts.
The evaluation was performed in the gas phase, using a MiniVAS™ device (ex Givaudan SA). This device is a regulating means that comprises a plurality of channels adapted to convey a gas (more particularly air) through cartridges, each cartridge containing a fragrance ingredient adsorbed onto an adsorbent. The air flows coming from the different cartridges are admixed and conveyed to the user's nose through a tubing fitted with an olfactometer funnel. Thus, by opening and closing channels and maintaining these opened and closed, respectively, for predetermined times, the regulating means can determine which fragrance ingredients and how much thereof are conveyed and when, and thus alter the nature of the fragrance perceived by the user. A description of the device can be found in WO2014154909A1, page 2, line 11 to page 4, line 7, and in H. R. Gygax et al. “Evolution of Real Time Aroma Creation at Givaudan”, poster presented at the 12th Weurman Flavour Research Symposium. July 2008. Interlaken, Switzerland; DOI: 10.13140/2.1.1924.0641.
For the sake of the present evaluation, one cartridge contained the scalp malodour (in the form of a model malodour) and each fragrance ingredient was assigned to another cartridge. The malodour counteractancy of each fragrance ingredient was evaluated separately against the scalp malodour. A constant air flow rate of 50 ml/min was used for all measurements. The perceived malodour intensity, as well as the fragrance intensity, were ranked on a scale of 1-5 (1=barely noticeable, 2=weak, 3=medium, 4=strong and 5=very strong).

Experiment [2] is described as follows: Impact of fragrance ingredients on scalp malodour counteractancy of 80 fragrance compositions (Example 2 protocol, statistical presence). The conditions noted are these: series of 80 fragrance compositions. How it is done: In a second set of experiments, the impact of these fragrance ingredients on the scalp malodour counteractancy of a fragrance composition was assessed. The scalp malodour counteractancy of a series of 80 fragrance compositions was assessed by performing the evaluation protocol described in Example 2. […] Ingredients that were statistically more present in fragrances having a high malodour counteractancy were assigned a positive status, whereas ingredients that were statistically more present in compositions having a low malodour counteractancy were assigned a negative status.

The mark [3] stands for this setting: Table 4, air flow 50 ml/min, scale of 1-5.
[4] abbreviates: Table 3, air flow 50 ml/min, scale of 1-5 (1=barely noticeable, 5=very strong).

In experiment [1] (setting [3]), `C=CCCC(=O)/C=C/C1C(C)=CCCC1(C)C` (centres unmarked) [(E)-1-(2,6,6-trimethylcyclohex-2-en-1-yl)hepta-1,6-dien-3-one] gave an MO intensity of 3. Moreover, the “Scalp MOC of ingredient alone” value in experiment [1] (Table 4, gas phase) was “Good coverage”. The “Impact on scalp MOC of fragrance composition” value (“Impact on scalp MOC” for short) in experiment [2] (Table 4) was “Negative”.
`CCC(=O)C(C)CC=C(C)C` (centres unmarked) [4,7-dimethyloct-6-en-3-one] showed an MO intensity in experiment [1] (setting [3]) of 4. For the same compound, the “Impact on scalp MOC” value in experiment [2] (Table 4) is “Negative”.
For the compound `CC(CCO)CCCC(C)(C)O` (centres unmarked) [3,7-dimethyloctane-1,7-diol], the MO intensity in experiment [1] (setting [4]) turned out to be 1. The “Scalp MOC of ingredient alone” value in experiment [1] (Table 3, gas phase) is listed as “No effect”. In experiment [2] (Table 3), the “Impact on scalp MOC” value was “Positive”.
For `CC(=O)c1ccc2ccccc2c1` [1-(2-naphtalenyl)-ethanone], in experiment [1] (setting [3]), the MO intensity came to 1. Besides, in experiment [2] (Table 4), the “Impact on scalp MOC” value is “Negative”.
`CCCCCCCCCC(C)C=O` (centres unmarked) [2-methylundecanal] displayed an MO intensity in experiment [1] (setting [4]) of 3.5. Besides, the “Impact on scalp MOC” value in experiment [2] (Table 3) is “Positive”.
Turning to `CCC(=O)/C=C/C1C(C)=CCCC1(C)C` (centres unmarked) [(E)-1-(2,6,6-trimethylcyclohex-2-en-1-yl)pent-1-en-3-one], in experiment [1] (setting [4]), the MO intensity turned out to be 3. In experiment [2] (Table 3), the “Impact on scalp MOC” value is “Positive”.
In experiment [1] (setting [3]), `CCC(=O)OCc1ccccc1` [benzyl propanoate] gave an MO intensity of 1. In addition, the “Impact on scalp MOC” value in experiment [2] (Table 4) is listed as “Negative”.
In experiment [1] (setting [4]), `CC(=O)OC1CCCCC1C(C)(C)C` (centres unmarked) [2-(tert-butyl)cyclohexyl acetate] displayed an MO intensity of 2. Also, the “Impact on scalp MOC” value in experiment [2] (Table 3) is “Positive”.
`CCCCCC/C=C/C(=O)OC` [(E)-methyl non-2-enoate] returned an MO intensity in experiment [1] (setting [4]) of 1. Moreover, the “Scalp MOC of ingredient alone” value in experiment [1] (Table 3, gas phase) was “No effect”. In experiment [2] (Table 3), the “Impact on scalp MOC” value was “Positive”.
In the case of `CCCC1CCCC(=O)O1` (centres unmarked) [6-propyltetrahydro-2H-pyran-2-one], the MO intensity in experiment [1] (setting [3]) was found to be 3.8. For the same compound, the “Impact on scalp MOC” value in experiment [2] (Table 4) is recorded as “Negative”.
As to mercapto-para-menthan-3-one, the MO intensity in experiment [1] (setting [4]) was 1. Also, in experiment [1] (Table 3, gas phase), the “Scalp MOC of ingredient alone” value is “No effect”. For the same compound, the “Impact on scalp MOC” value in experiment [2] (Table 3) was “Positive”.
`CC(C)CCCC(C)CCO` (centres unmarked) [3,7-dimethyloctan-1-ol] registered an MO intensity in experiment [1] (setting [4]) of 4.3. Further, the “Impact on scalp MOC” value in experiment [2] (Table 3) is “Positive”.
For `CC(=O)c1ccccc1` [1-phenylethanone], in that order: 5 and “Positive”.
Turning to `CC(=O)OC/C=C(/C)CCC=C(C)C` [(Z)-3,7-dimethylocta-2,6-dien-1-yl acetate], in experiment [1] (setting [3]), the MO intensity worked out at 1. For the same compound, the “Impact on scalp MOC” value in experiment [2] (Table 4) is listed as “Negative”.
On the same counts, the results for `CC(=O)CCC1=C(C)CCCC1(C)C` [4-(2,6,6-trimethylcyclohex-1-en-1-yl)butan-2-one] are 1 and “Negative”.
`CC(C)CC1CC(C)(O)CCO1` (centres unmarked) [tetrahydro-4-methyl-2-(2-methylpropyl)-2H-pyran-4-ol] came in with an MO intensity in experiment [1] (setting [3]) of 2.2. The “Scalp MOC of ingredient alone” value in experiment [1] (Table 4, gas phase) is on record as “Low coverage”. The “Impact on scalp MOC” value in experiment [2] (Table 4) was “Negative”.
For the compound `CC1=CCC(/C=C/C(C)C(C)O)C1(C)C` (centres unmarked) [(E)-3-methyl-5-(2,2,3-trimethylcyclopent-3-en-1-yl)pent-4-en-2-ol], the MO intensity in experiment [1] (setting [4]) came out at 4.3. For the same compound, the “Impact on scalp MOC” value in experiment [2] (Table 3) is listed as “Positive”.
In experiment [1] (setting [4]), `C/C=C/C(=O)C1=C(C)C=CCC1(C)C` [(E)-1-(2,6,6-trimethylcyclohexa-1,3-dien-1-yl)but-2-en-1-one] gave an MO intensity of 2.8. Moreover, the “Impact on scalp MOC” value in experiment [2] (Table 3) is listed as “Positive”.
`C=CCc1ccc(O)c(OC)c1` [4-allyl-2-methoxyphenol] displayed an MO intensity in experiment [1] (setting [4]) of 4. For the same compound, the “Impact on scalp MOC” value in experiment [2] (Table 3) is listed as “Positive”.
In the case of `C=CC(C)(O)CC/C=C(\C)CCC=C(C)C` (centres unmarked) [(E)-3,7,11-trimethyldodeca-1,6,10-trien-3-ol], the MO intensity in experiment [1] (setting [4]) came to 1. In addition, the “Scalp MOC of ingredient alone” value in experiment [1] (Table 3, gas phase) was “No effect”. The “Impact on scalp MOC” value in experiment [2] (Table 3) was “Positive”.
`CC(=O)OCCC(C)CCC=C(C)C` (centres unmarked) [3,7-dimethyloct-6-en-1-yl acetate] displayed an MO intensity in experiment [1] (setting [3]) of 2. In addition, the “Scalp MOC of ingredient alone” value in experiment [1] (Table 4, gas phase) is “Low coverage”. In experiment [2] (Table 4), the “Impact on scalp MOC” value is “Negative”.
`OCCc1ccccc1` [2-phenylethanol] had an MO intensity in experiment [1] (setting [3]) of 3.2. Also, the “Impact on scalp MOC” value in experiment [2] (Table 4) was “Negative”.
`CCCCOC(=O)C(C)OC(=O)CCC` (centres unmarked) [1-butoxy-1-oxopropan-2-yl butanoate]: the MO intensity in experiment [1] (setting [4]) turned out to be 1. For the same compound, in experiment [1] (Table 3, gas phase), the “Scalp MOC of ingredient alone” value is recorded as “No effect”. The “Impact on scalp MOC” value in experiment [2] (Table 3) is listed as “Positive”.
In experiment [1] (setting [4]), `O=Cc1ccc2c(c1)OCO2` [benzo[d][1,3]dioxole-5-carbaldehyde] displayed an MO intensity of 3. Further, the “Impact on scalp MOC” value in experiment [2] (Table 3) is “Positive”.
In the case of `C/C=C/C(=O)/C(C)=C(\C)C(C)C` [(2E,5E)-5,6,7-trimethylocta-2,5-dien-4-one], the MO intensity in experiment [1] (setting [4]) amounted to 1.5. The “Impact on scalp MOC” value in experiment [2] (Table 3) is “Positive”.
In experiment [1] (setting [4]), `CC(C)CCc1ccc2c(c1)OCC(=O)CO2` [7-isopentyl-2H-benzo[b][1,4]dioxepin-3(4H)-one] yielded an MO intensity of 4.5. In addition, the “Impact on scalp MOC” value in experiment [2] (Table 3) is on record as “Positive”.
Regarding `C/C=C/c1ccc(OC)c(OC)c1` [(E)-1,2-dimethoxy-4-(prop-1-en-1-yl)benzene], in experiment [1] (setting [3]), the MO intensity turned out to be 3.3. In addition, in experiment [2] (Table 4), the “Impact on scalp MOC” value is on record as “Negative”.
Consider `CC(=O)O[C@]1(C)CC[C@]23CC1C(C)(C)C2CC[C@@H]3C` (stereo partly drawn) [(1S,6R,8aR)-1,4,4,6-tetramethyloctahydro-1H-5,8a-methanoazulen-6-yl acetate], for which the MO intensity in experiment [1] (setting [4]) came to 1. Moreover, in experiment [1] (Table 3, gas phase), the “Scalp MOC of ingredient alone” value is reported as “No effect”. Besides, in experiment [2] (Table 3), the “Impact on scalp MOC” value is “Positive”.
For `Cc1ncsc1CCO` [2-(4-Methyl-1,3-thiazol-5-yl)ethanoL], in that order: 1, “No effect” and “Positive”.
For the compound `COC(=O)c1ccccc1N` [methyl 2-aminobenzoate], the MO intensity in experiment [1] (setting [4]) worked out at 4.3. Further, in experiment [2] (Table 3), the “Impact on scalp MOC” value is given as “Positive”.
`CC1(C)[C@H]2CC[C@]1(C)C(=O)C2` [(1S,4S)-1,7,7-trimethylbicyclo[2.2.1]heptan-2-one] yielded an MO intensity in experiment [1] (setting [4]) of 4.5. In experiment [2] (Table 3), the “Impact on scalp MOC” value was “Positive”.
Regarding `C=CCOC(=O)COC1CCCCC1` [allyl 2-(cyclohexyloxy)acetate], in experiment [1] (setting [3]), the MO intensity is given as 4.3. The “Impact on scalp MOC” value in experiment [2] (Table 4) is given as “Negative”.
Turning to `Cc1ccc2c(c1)OCC(=O)CO2` [8-methyl-1,5-benzodioxepin-3-one], the MO intensity in experiment [1] (setting [4]) worked out at 3.5. Besides, the “Impact on scalp MOC” value in experiment [2] (Table 3) was “Positive”.
In turn, `C/C(=C\C(C)C)C(C)OC(C)(C)COC(=O)C1CC1` (centres unmarked) [(E)-2-((3,5-dimethylhex-3-en-2-yl)oxy)-2-methylpropyl cyclopropanecarboxylate] had an MO intensity in experiment [1] (setting [3]) of 1. Further, the “Impact on scalp MOC” value in experiment [2] (Table 4) is listed as “Negative”.
On to `CC(C)=CCC(C)C1CC1(C)CO` (centres unmarked) [1-methyl-2-(5-methylhex-4-en-2-yl)cyclopropylmethanol], for which, in experiment [1] (setting [4]), the MO intensity was 2.7. The “Impact on scalp MOC” value in experiment [2] (Table 3) is on record as “Positive”.
In experiment [1] (setting [3]), `CC(=O)OCc1ccccc1` [benzyl acetate] displayed an MO intensity of 0. In addition, in experiment [1] (Table 4, gas phase), the “Scalp MOC of ingredient alone” value is reported as “Enhances MO”. Further, in experiment [2] (Table 4), the “Impact on scalp MOC” value was “Negative”.
Regarding `CCCCC1CCC(=O)O1` (centres unmarked) [5-butyloxolan-2-one], the MO intensity in experiment [1] (setting [3]) is given as 3.8. The “Impact on scalp MOC” value in experiment [2] (Table 4) is given as “Negative”.
`CC1(C)CCC[C@]2(C)[C@H]3CCO[C@]3(C)CC[C@@H]12` [(3aR,5aS,9aS,9bR)-3a,6,6,9a-tetramethyl-2,4,5,5a,7,8,9,9b-octahydro-1H-benzo[e][1]benzofuran]: the MO intensity in experiment [1] (setting [4]) is recorded as 1. For the same compound, in experiment [1] (Table 3, gas phase), the “Scalp MOC of ingredient alone” value was “No effect”. Moreover, the “Impact on scalp MOC” value in experiment [2] (Table 3) is “Positive”.
`CC1C/C=C\CCCCCCCCCC(=O)C1` (centres unmarked) [(Z)-3-methylcyclopentadec-5-enone]: in experiment [1] (setting [4]), the MO intensity is given as 2.1. For the same compound, in experiment [2] (Table 3), the “Impact on scalp MOC” value is “Positive”.
For `CC(CCO)CCc1ccccc1` (centres unmarked) [3-methyl-5-phenylpentan-1-ol], the MO intensity in experiment [1] (setting [4]) was 2. Moreover, the “Impact on scalp MOC” value in experiment [2] (Table 3) is “Positive”.
